Assay results as given in PubChem BioAssay AID2060499 (Molecular Pharmacology Branch, DTP, NCI, 2025).

Tested on: 777334-354-R2-J4-PDC tumor spheroids with HUVEC/MSC, viability
Test: Anticancer human tumor 777334-354-R2-J4-PDC patient-derived pancreatic adenocarcinoma cell line growth inhibition [GQUAD]
Conditions: for IC50: curve of first compound; for viability, T/C: stronger effect = lower value; active = viability on the fitted dose curve at most 10% of control; inactive = the rest
Summary of the method: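 Viability of tumor cells grown as complex spheroids with endothelial and stromal cells, exposed to drug combinations. Top concentration at or near clinical Cmax (else 10 microM), diluted in half-log increments.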

[1] = second compound 0.0316 µM, first compound 0.0316 µM
[2] = second compound 0.0316 µM, first compound 0.1 µM
[3] = second compound 0.0316 µM, first compound 0.316 µM
[4] = second compound 0.0316 µM, first compound 1 µM
[5] = second compound 0.0316 µM, first compound 3.16 µM
[6] = second compound 0.0316 µM, first compound 10 µM
[7] = second compound 0.1 µM, first compound 0.0316 µM
[8] = second compound 0.1 µM, first compound 0.1 µM
[9] = second compound 0.1 µM, first compound 0.316 µM
[10] = second compound 0.1 µM, first compound 1 µM
[11] = second compound 0.1 µM, first compound 3.16 µM
[12] = second compound 0.1 µM, first compound 10 µM
[13] = second compound 0.316 µM, first compound 0.0316 µM
[14] = second compound 0.316 µM, first compound 0.1 µM
[15] = second compound 0.316 µM, first compound 0.316 µM
[16] = second compound 0.316 µM, first compound 1 µM
[17] = second compound 0.316 µM, first compound 3.16 µM
[18] = second compound 0.316 µM, first compound 10 µM
[19] = second compound 1 µM, first compound 0.0316 µM
[20] = second compound 1 µM, first compound 0.1 µM
[21] = second compound 1 µM, first compound 0.316 µM
[22] = second compound 1 µM, first compound 1 µM
[23] = second compound 1 µM, first compound 3.16 µM
[24] = second compound 1 µM, first compound 10 µM
[25] = second compound 3.16 µM, first compound 0.0316 µM
[26] = second compound 3.16 µM, first compound 0.1 µM
[27] = second compound 3.16 µM, first compound 0.316 µM
[28] = second compound 3.16 µM, first compound 1 µM
[29] = second compound 3.16 µM, first compound 3.16 µM
[30] = second compound 3.16 µM, first compound 10 µM
[31] = second compound 10 µM, first compound 0.0316 µM
[32] = second compound 10 µM, first compound 0.1 µM
[33] = second compound 10 µM, first compound 0.316 µM
[34] = second compound 10 µM, first compound 1 µM
[35] = second compound 10 µM, first compound 3.16 µM
[36] = second compound 10 µM, first compound 10 µM
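Also: spheroids exposed to compounds for 7 days before readout.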

C=CC(=O)N1CCN(c2nc(=O)n(-c3c(C)ccnc3C(C)C)c3nc(-c4c(O)cccc4F)c(F)cc23)C(C)C1 (centres undefined) + Cc1cnc(CNC(=O)c2c(=O)c3ccc(N4CCCN(C)CC4)nc3n3c2sc2ccccc23)cn1
> 10 µM: IC50 (second compound 0.0316 µM) | IC50 (second compound 0.1 µM) | IC50 (second compound 0.316 µM) | IC50 (second compound 1 µM) | IC50 (second compound 3.16 µM) | IC50 (second compound 10 µM)
inactive: viability, T/C [1] 106% | viability, T/C [2] 75.7% | viability, T/C [3] 96.2% | viability, T/C [4] 106% | viability, T/C [5] 110% | viability, T/C [6] 97.2% | viability, T/C [7] 95.3% | viability, T/C [8] 79.4% | viability, T/C [9] 90.2% | viability, T/C [10] 89.9% | viability, T/C [11] 109% | viability, T/C [12] 81.2% | viability, T/C [13] 81.2% | viability, T/C [14] 91.3% | viability, T/C [15] 87.7% | viability, T/C [16] 104% | viability, T/C [17] 90.7% | viability, T/C [18] 76.3% | viability, T/C [19] 73.7% | viability, T/C [20] 74.1% | viability, T/C [21] 69.9% | viability, T/C [22] 81.4% | viability, T/C [23] 82.9% | viability, T/C [24] 71.5% | viability, T/C [25] 61.8% | viability, T/C [26] 60.8% | viability, T/C [27] 62.5% | viability, T/C [28] 66.8% | viability, T/C [29] 76.9% | viability, T/C [30] 55.3% | viability, T/C [31] 56.6% | viability, T/C [32] 55.3% | viability, T/C [33] 58.6% | viability, T/C [34] 70% | viability, T/C [35] 64.5% | viability, T/C [36] 49.9%

CC(C)n1c(=O)n(C)c2cnc3cc(F)c(-c4ccc(OCCCN5CCCCC5)nc4)cc3c21 + Cc1cnc(CNC(=O)c2c(=O)c3ccc(N4CCCN(C)CC4)nc3n3c2sc2ccccc23)cn1
> 10 µM: IC50 (second compound 0.0316 µM) | IC50 (second compound 0.1 µM) | IC50 (second compound 0.316 µM) | IC50 (second compound 1 µM) | IC50 (second compound 3.16 µM) | IC50 (second compound 10 µM)
inactive: viability, T/C [1] 85.8% | viability, T/C [2] 84% | viability, T/C [3] 93.9% | viability, T/C [4] 91% | viability, T/C [5] 103% | viability, T/C [6] 85.6% | viability, T/C [7] 78.3% | viability, T/C [8] 74.3% | viability, T/C [9] 89.1% | viability, T/C [10] 73.6% | viability, T/C [11] 74.2% | viability, T/C [12] 91.4% | viability, T/C [13] 71.4% | viability, T/C [14] 73.2% | viability, T/C [15] 73.8% | viability, T/C [16] 84.7% | viability, T/C [17] 76% | viability, T/C [18] 74.8% | viability, T/C [19] 73.3% | viability, T/C [20] 71.6% | viability, T/C [21] 66.9% | viability, T/C [22] 72.7% | viability, T/C [23] 85.7% | viability, T/C [24] 73.7% | viability, T/C [25] 57.6% | viability, T/C [26] 62.8% | viability, T/C [27] 66.5% | viability, T/C [28] 62.1% | viability, T/C [29] 78.6% | viability, T/C [30] 63.4% | viability, T/C [31] 57.4% | viability, T/C [32] 52.9% | viability, T/C [33] 61.6% | viability, T/C [34] 62% | viability, T/C [35] 69% | viability, T/C [36] 64.1%
